Assay results published in patent US4740233A, “Substituted 1,2,4-triazolo[1,5-a]-pyrimidine-2-sulfonamides and compositions and methods of controlling undesired vegetation and suppressing the nitrification of ammonium nitrogen in soil” (The Dow Chemical Company, priority 1986, dated 1988).

What was measured:
barnyardgrass [1] = assay: Control of aquatic plant species (paddy water); format: in vivo, Echinochloa crusgalli; details: Echinochloa crus-galli, 216 h, nine days, read-out: Percent control; for pest or weed control at 31 g/ha: 0.031 Kg/Ha; for pest or weed control at 250 g/ha: 0.25 Kg/Ha
Experimental: In testing for such utility, the plant species to be tested were transplanted into 16 oz. containers into about 2 inches of soil when they were in the 1-2 inch stage and then flooded to a depth of about 1 inch. An acetone concentrate of the chemical to be tested was then injected into the paddy water, the volume injected being varied as desired to provide the desired concentration. Percent control was evaluated nine days after application.

rape = assay: Preemergent control of plant species; format: in vivo, Brassica napus; details: Brassica napus, pre-emergence, 336 h; 0.25 lb/acre; read-out: percent preemergent control
In short: (§1)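 Seeds sown in agricultural soil beds in a greenhouse received aqueous emulsions of test compositions applied uniformly over the bed surface at the listed rates; water-treated beds served as control. After two weeks under greenhouse growth conditions, control was scored as growth reduction versus untreated plants of the same species.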

yellow foxtail = assay: Preemergent control of plant species; format: in vivo, Setaria lutescens; details: Setaria, pre-emergence, 336 h; 0.25 lb/acre; read-out: percent preemergent control
In short: as §1

[2] = test system: nitrification of ammonium nitrogen; assay: Suppression of nitrification of ammonium nitrogen in soil; details: 27° C.
In short: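 Value is % NH4-N remaining after a two-week, 27° C incubation of treated soil held at 1/3 bar tension moisture. Nitrate was measured with an ion-selective electrode after extraction with ammonium sulfate solution and 10 min shaking.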

crabgrass = assay: Preemergent control of plant species; format: in vivo, Digitaria spp.; details: Digitaria sanguinalis, pre-emergence, 336 h; 0.25 lb/acre; read-out: percent preemergent control
In short: as §1

sugar beet = assay: Preemergent control of plant species; format: in vivo, Beta saccharifera; details: Beta vulgaris, pre-emergence, 336 h; 0.25 lb/acre; read-out: percent preemergent control
In short: as §1

sorghum = assay: Preemergent control of plant species; format: in vivo, Sorghum vulgare; details: Sorghum, pre-emergence, 336 h; 0.25 lb/acre; read-out: percent preemergent control
In short: as §1

jimsonweed = assay: Preemergent control of plant species; format: in vivo, Datura stramonium; details: Datura stramonium, pre-emergence, 336 h; 0.25 lb/acre; read-out: percent preemergent control
In short: as §1

sprangletop = assay: Control of aquatic plant species (paddy water); format: in vivo, Leptochloa filiformis; details: Leptochloa filiformis, 216 h, nine days, read-out: Percent control; for pest or weed control at 31 g/ha: 0.031 Kg/Ha; for pest or weed control at 250 g/ha: 0.25 Kg/Ha
In short: (§2)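 Seedlings at the 1-2 inch stage were transplanted into about 2 inches of soil and flooded to roughly 1 inch. An acetone concentrate of test chemical was injected into the paddy water, with the injected volume varied to set concentration. Percent control was rated nine days after application.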

wheat = assay: Preemergent control of plant species; format: in vivo, Triticum aestivum; details: Triticum aestivum, pre-emergence, 336 h; 0.25 lb/acre; read-out: percent preemergent control
In short: as §1

yellow nutsedge [3] = assay: Preemergent control of plant species; format: in vivo, Cyperus esculentus; details: Cyperus, pre-emergence, 336 h; 0.25 lb/acre; read-out: percent preemergent control
In short: as §1

soybean = assay: Preemergent control of plant species; format: in vivo, Glycine max.; details: Glycine max, pre-emergence, 336 h; 0.25 lb/acre; read-out: percent preemergent control
In short: as §1

pigweed = assay: Preemergent control of plant species; format: in vivo, Amaranthus spp.; details: Amaranthus retroflexus, pre-emergence, 336 h; 0.25 lb/acre; read-out: percent preemergent control
In short: as §1

rice [4] = assay: Preemergent control of plant species; format: in vivo, Oryza sativa; details: Oryza sativa, pre-emergence, 336 h; 0.25 lb/acre; read-out: percent preemergent control
In short: as §1

yellow nutsedge [5] = assay: Control of aquatic plant species (paddy water); format: in vivo, Cyperus esculentus; details: Cyperus, 216 h, nine days, read-out: Percent control; for pest or weed control at 31 g/ha: 0.031 Kg/Ha; for pest or weed control at 250 g/ha: 0.25 Kg/Ha
In short: as §2

wild oats = assay: Preemergent control of plant species; format: in vivo; details: Avena fatua, pre-emergence, 336 h; 0.25 lb/acre; read-out: percent preemergent control
In short: as §1

rice [6] = assay: Control of aquatic plant species (paddy water); format: in vivo, Oryza sativa; details: Oryza sativa, 216 h, nine days, read-out: Percent control; for pest or weed control at 31 g/ha: 0.031 Kg/Ha; for pest or weed control at 250 g/ha: 0.25 Kg/Ha
In short: as §2

barnyardgrass [7] = assay: Preemergent control of plant species; format: in vivo, Echinochloa crusgalli; details: Echinochloa crus-galli, pre-emergence, 336 h; 0.25 lb/acre; read-out: percent preemergent control
In short: as §1

velvetleaf = assay: Preemergent control of plant species; format: in vivo, Abutilon theophrasti; details: Abutilon theophrasti, pre-emergence, 336 h; 0.25 lb/acre; read-out: percent preemergent control
In short: as §1

johnson grass = assay: Preemergent control of plant species; format: in vivo, Sorghum halepense; details: Sorghum halepense, pre-emergence, 336 h; 0.25 lb/acre; read-out: percent preemergent control
In short: as §1

cotton = assay: Preemergent control of plant species; format: in vivo, Gossypium spp.; details: Gossypium hirsutum, pre-emergence, 336 h; 0.25 lb/acre; read-out: percent preemergent control
In short: as §1

annual morning glory = assay: Preemergent control of plant species; format: in vivo, Ipomoea spp.; details: Ipomoea, pre-emergence, 336 h; 0.25 lb/acre; read-out: percent preemergent control
In short: as §1

corn = assay: Preemergent control of plant species; format: in vivo, Zea mays; details: Zea mays, pre-emergence, 336 h; 0.25 lb/acre; read-out: percent preemergent control
In short: as §1

Row | SMILES | pest or weed control at 31 g/ha (barnyardgrass [1]) | plant injury at 280.212 g/ha (rape) | pest or weed control at 280.212 g/ha (yellow foxtail) | % NH4-N Remaining After 2 Weeks Incubation ([2]; 1 ppm) | pest or weed control at 280.212 g/ha (crabgrass) | plant injury at 280.212 g/ha (sugar beet) | plant injury at 280.212 g/ha (sorghum) | pest or weed control at 280.212 g/ha (jimsonweed) | plant injury at 280.212 g/ha (wheat) | pest or weed control at 280.212 g/ha (yellow nutsedge [3]) | plant injury at 280.212 g/ha (soybean) | pest or weed control at 280.212 g/ha (pigweed) | plant injury at 280.212 g/ha (rice [4]) | pest or weed control at 280.212 g/ha (wild oats) | pest or weed control at 280.212 g/ha (barnyardgrass [7]) | pest or weed control at 280.212 g/ha (velvetleaf) | pest or weed control at 280.212 g/ha (johnson grass) | plant injury at 280.212 g/ha (cotton) | pest or weed control at 280.212 g/ha (annual morning glory) | plant injury at 280.212 g/ha (corn) | also measured
1 | Cc1cc(C)n2nc(S(=O)(=O)Nc3c(Cl)cccc3Br)nc2n1 [Compound 39] | 20% | 95% | 97% | 91% | 70% | 97% | 95% | 100% | 0% | 100% | 95% | 100% | 97% | 0% | 97% | 95% | 95% | 95% | 90% | 95% | pest or weed control at 250 g/ha (barnyardgrass [1]): 99%; % NH4-N Remaining After 2 Weeks Incubation ([2]; 0.01 ppm): 49%; % NH4-N Remaining After 2 Weeks Incubation ([2]; 0.1 ppm): 78%; % NH4-N Remaining After 2 Weeks Incubation ([2]; 10 ppm): 100%; pest or weed control at 31 g/ha (sprangletop): 0%; pest or weed control at 250 g/ha (sprangletop): 75%; pest or weed control at 31 g/ha (yellow nutsedge [5]): 85%; pest or weed control at 250 g/ha (yellow nutsedge [5]): 99%; pest or weed control at 31 g/ha (rice [6]): 0%; pest or weed control at 250 g/ha (rice [6]): 75%
2 | Cc1cc(C)n2nc(S(=O)(=O)Nc3c(Cl)cccc3Cl)nc2n1 [Compound 22, 5,7-Dimethyl-N-(2,6-dichlorophenyl)-1,2,4-triazolo[1,5-a]pyrimidine-2-sulfonamide] |  | 100% | 98% | 86% | 95% | 98% | 95% | 100% | 50% | 98% | 95% | 100% | 90% | 90% | 95% | 98% | 98% | 95% | 70% | 50% | pest or weed control at 250 g/ha (barnyardgrass [1]): 97%; % NH4-N Remaining After 2 Weeks Incubation ([2]; 0.06 ppm): 69%; % NH4-N Remaining After 2 Weeks Incubation ([2]; 0.125 ppm): 77%; % NH4-N Remaining After 2 Weeks Incubation ([2]; 0.25 ppm): 82%; % NH4-N Remaining After 2 Weeks Incubation ([2]; 0.5 ppm): 86%; pest or weed control at 250 g/ha (sprangletop): 30%; pest or weed control at 250 g/ha (yellow nutsedge [5]): 97%; pest or weed control at 250 g/ha (rice [6]): 97%
3 | Cc1ccn2nc(S(=O)(=O)Nc3c(Cl)cccc3Cl)nc2n1 [Compound 143, 5-Methyl-N-(2,6-dichlorophenyl)-1,2,4-triazolo[1,5-a]pyrimidine-2-sulfonamide] | 95% | 95% | 97% | 91% | 100% | 100% | 99% | 100% | 50% | 100% | 70% | 100% | 97% | 50% | 97% | 97% | 100% | 100% | 90% | 95% | pest or weed control at 500 g/ha (barnyardgrass [1]; 0.5 Kg/Ha): 99%; % NH4-N Remaining After 2 Weeks Incubation ([2]; 0.01 ppm): 50%; % NH4-N Remaining After 2 Weeks Incubation ([2]; 0.1 ppm): 78%; % NH4-N Remaining After 2 Weeks Incubation ([2]; 10 ppm): 100%; pest or weed control at 31 g/ha (sprangletop): 0%; pest or weed control at 500 g/ha (sprangletop; 0.5 Kg/Ha): 97%; pest or weed control at 31 g/ha (yellow nutsedge [5]): 93%; pest or weed control at 500 g/ha (yellow nutsedge [5]; 0.5 Kg/Ha): 97%; pest or weed control at 31 g/ha (rice [6]): 0%; pest or weed control at 500 g/ha (rice [6]; 0.5 Kg/Ha): 95%
